One compound from ChEMBL document CHEMBL1268996, “Apoptotic action of ursolic acid isolated from Corni fructus in RC-58T/h/SA#4 primary human prostate cancer cells” (2010) can be followed below.

The species entered for test [1] is Homo sapiens. Kind of test: Antiproliferative activity against human RC-58T/h/SA#4 cells at >= 30 uM SRB assay. Type of test: functional, cell-based. The settings on record: TDE = time-dependent effect. (In general: In SRB staining, fixed cells bind dye roughly in proportion to their protein.)
The species entered for test [2] is Homo sapiens. The experiment in a line: Antiproliferative activity against human RC-58T/h/SA#4 cells after 24 to 72 hrs SRB assay. Type of test: functional, cell-based.
Test [3] is filed under the species Homo sapiens. The experiment in a line: Antiproliferative activity against human RC-58T/h/SA#4 cells assessed as decrease in viable cells by trypan blue assay. Type of test: functional, cell-based.
Test [4] is filed under the species Homo sapiens. The experiment in a line: Induction of apoptosis in human RC-58T/h/SA#4 cells assessed as increase in sub-G1 DNA content after 24 hrs by flow cytometry. Type of test: functional, cell-based. For orientation: A flow cytometer gives signals particle by particle.
Test [5] in a line: Induction of apoptosis in human RC-58T/h/SA#4 cells assessed as increase in sub-G1 DNA content at 10 ug/ml after 24 hrs by flow cytometry. Type of test: functional.
A short description of test [6]: Induction of apoptosis in human RC-58T/h/SA#4 cells assessed as increase in sub-G1 DNA content at 20 ug/ml after 24 hrs by flow cytometry. Type of test: functional.
Test [7] in a line: Induction of apoptosis in human RC-58T/h/SA#4 cells assessed as increase in sub-G1 DNA content at 30 ug/ml after 24 hrs by flow cytometry. Type of test: functional.
A short description of test [8]: Induction of apoptosis in human RC-58T/h/SA#4 cells assessed as increase in sub-G1 DNA content at 40 ug/ml after 24 hrs by flow cytometry. Type of test: functional.
For test [9], the species on record is Homo sapiens. The experiment in a line: Induction of apoptosis in human RC-58T/h/SA#4 cells assessed as chromatin condensation at 30 to 40 uM after 24 hrs by Hoechst 33258 staining. Type of test: functional, cell-based.
The species named for test [10] is Homo sapiens. Kind of test: Induction of apoptosis in human RC-58T/h/SA#4 cells assessed as nuclear fragmentation at 30 to 40 uM after 24 hrs by Hoechst 33258 staining. Type of test: functional, cell-based.
For test [11], the species on record is Homo sapiens. The experiment in a line: Induction of apoptosis in human RC-58T/h/SA#4 cells assessed as DNA fragmentation ladder at 30 to 40 uM after 24 hrs by agarose gel electrophoresis. Type of test: functional, cell-based.
A short description of test [12]: Induction of apoptosis in human RC-58T/h/SA#4 cells assessed as caspase 8 activation at 40 uM by fluorometric protease assay relative to control. Type of test: functional.
A short description of test [13]: Induction of apoptosis in human RC-58T/h/SA#4 cells assessed as caspase 9 activation at 40 uM by fluorometric protease assay relative to control. Type of test: functional.
The nature of test [14]: Induction of apoptosis in human RC-58T/h/SA#4 cells assessed as caspase 3 activation at 40 uM by fluorometric protease assay relative to control. Type of test: functional.
The species entered for test [15] is Homo sapiens. Kind of test: Induction of apoptosis in human RC-58T/h/SA#4 cells assessed as PARP cleavage by Western blot analysis. Type of test: functional, cell-based. Background: Immunoblotting shows a protein as a band on a membrane.
The species entered for test [16] is Homo sapiens. The experiment in a line: Induction of apoptosis in human RC-58T/h/SA#4 cells assessed as PARP cleavage by Western blot analysis in presence of 10 uM Z-VAD-fmk caspase inhibitor. Type of test: functional, cell-based.
The species named for test [17] is Homo sapiens. Kind of test: Induction of apoptosis in human RC-58T/h/SA#4 cells assessed as increase in pro-apoptotic protein Bax at 30 to 40 uM by Western blot analysis. Type of test: functional, cell-based.
The species entered for test [18] is Homo sapiens. The experiment in a line: Induction of apoptosis in human RC-58T/h/SA#4 cells assessed as decrease in anti-apoptotic protein Bcl-2 at 30 to 40 uM by Western blot analysis. Type of test: functional, cell-based.
Test [19] is filed under the species Homo sapiens. Kind of test: Induction of apoptosis in human RC-58T/h/SA#4 cells assessed as caspase 8-mediated Bid protein cleavage at 30 to 40 uM by Western blot analysis. Type of test: functional, cell-based.
The species named for test [20] is Homo sapiens. Kind of test: Induction of apoptosis in human RC-58T/h/SA#4 cells assessed as AIF translocation into nucleus at 30 to 40 uM by Western blot analysis. Type of test: functional, cell-based.

Calls of active or inactive are those of the source. No cut-off for these calls is given here.

As for `C[C@H]1[C@H](C)CC[C@]2(C(=O)O)CC[C@]3(C)C(=CC[C@@H]4[C@@]5(C)CC[C@H](O)C(C)(C)[C@@H]5CC[C@]43C)[C@H]12` [URSOLIC ACID], the Activity entry in [1] is “tde”; in test [2] it was “Dose-dependent effect”; in [3], “Dose-dependent effect”; in test [4], “Dose-dependent effect”; in test [5], 5.41%; in test [6], 20.83%. Further, the Activity in [7] is listed as 48.1%; in [8], 58.6%. Besides, the outcome in test [9], in [10], in test [11], in test [15], in test [17] and in test [18] was Active. The outcome in test [19] and in [20] was Active. For the same compound, the “fold change (FC)” value in [12] is 1.8; in [13], 1.1; in test [14], 1.8. Moreover, the result in test [16] was inactive.
